Assay results taken from article PMC4125160, “Neurotoxicity and Mode of Action of N, N-Diethyl-Meta-Toluamide (DEET)” (PLoS ONE, 2014).
Read-outs that look alike come from different tables or passages of the source.

Tests used:
[1] = test system: housefly larval central nervous system; assay: Neurophysiological recordings of CNS nerve discharge in housefly larvae; parameters: species or system Musca domestica; settings: for EC50: Musca domestica
Procedure: Neurophysiological recordings were performed on the central and peripheral nervous systems of larval Musca domestica. Glass pipette electrodes were pulled from borosilicate glass capillaries on a P-1000 Flaming/Brown micropipette puller (Sutter Instrument, Novato CA, USA). For CNS recordings, it was first excised from the larvae and placed in a separate dish with physiological saline (200 µL) containing: 157 mM NaCl, 3 mM KCl, 2 mM CaCl2, and 4 mM HEPES, pH = 7.25. The CNS was manually transected posterior to the cerebral lobes to disrupt the blood-brain barrier and enhance chemical penetration. Any convenient peripheral nerve trunks were pulled into a recording suction electrode. Amplification and digitization of descending electrical activity originating from the CNS were converted on-line into a rate plot, expressed in Hz (MacLab analog to digital converter hardware and LabChart 7 software, ADInstruments, Colorado Springs, CO, USA). […] After a baseline was established, the CNS preparation was directly exposed to test compound by adding 200 µL of solution to the bath containing 200 µL of saline. The final concentration of solvent in the bath was 0.1% DMSO. Each concentration was recorded for 3–5 min prior to the addition of the next drug concentration. […] Each drug concentration was replicated 3-5 times.

firefly light organ = assay: In vivo assay for effects on firefly light organ; parameters: species or system Photinus pyralis
Procedure: Adult firefly beetles (Photinus sp.) were collected locally (Nashville, TN) and housed in well-ventilated chambers with tree leaves. The animals had free access to 10% sucrose solution. Chemicals were dissolved in absolute ethanol and 1 µL was topically applied directly to the ventral light organ with the use of a manual pipettor. Prior to DEET application, the beetles were immobilized with molten parafilm and were mounted on corrugated cardboard for the duration of the study. Due to the time required for bioactivation of CDM, insects were treated with 1 µL of CDM and were released back into the holding chamber for three hours. After three hours, they were mounted in the previously described manner and monitored for activation of the lantern. Photographs were captured with a handheld camera (Canon PowerShot SX110 IS). Pictures were captured within five minutes, four hours, and 10 minutes post application for DEET, CDM, and propoxur, respectively. DEET- and propoxur-treated insects were monitored for at least 1 hour post exposure to ensure the response was not slow acting. The original photographs were cropped and background shadows were enhanced to increase detail of the insect using Adobe Photoshop PS5 (Adobe Systems, San Jose, CA, USA). The color or brightness of the light organ was not manipulated in any way during post-processing of the image.

[2] = target: T1, AKRON AgAChE (G119S AChE mutation) (Anopheles gambiae, UniProt Q869C3, G280S); assay: AChE inhibition, Ellman assay; assay type: biochemical
T1 construct: Homogenate enzymes were prepared from groups of ten non-blood fed adult female mosquitoes; from tissue; host or cells: whole adult female mosquitoes, AKRON strain, supernatant of homogenate
Source text: (§1) In vitro biochemical assays utilized five acetylcholinesterase (AChE) enzymes. Recombinant human AChE (hAChE) was purchased from a commercial source (lyophilized powder, Sigma C1682, St. Louis, MO, USA). Homogenates to prepare Anopheles gambiae AChE (AgAChE) were obtained from the wild type G3 strain and the resistant AKRON strain (BEI Resources; http://www.beiresources.org/). AKRON mosquitoes (from Benin and donated by M. Akogbeto) have both knockdown resistance (kdr) to pyrethroids (L1014F sodium channel mutation) and the G119S AChE mutation (ace-1R), which confers resistance to carbamates, [15]. Both strains were cultured in the Emerging Pathogens Institute, University of Florida, Gainesville, FL, USA from eggs provided by the Center for Disease Control, Atlanta, GA, USA. Homogenates were also used to prepare Aedes aegypti AChE (AeAChE) from mosquitoes provided by the CMAVE, USDA-ARS, Gainesville, FL, USA; Musca domestica AChE (MdAChE) from flies cultured in the Department of Entomology and Nematology, Medical Entomology Laboratory, University of Florida, Gainesville, FL, USA); and Drosophila melanogaster AChE (DmAChE) from flies (Oregon-R strain) cultured in the Emerging Pathogens Institute, University of Florida, Gainesville, FL, USA. Homogenate enzymes were prepared from groups of ten non-blood fed adult female mosquitoes, five whole bodied Drosophila, or three Musca heads homogenized in 1 mL of ice-cold sodium phosphate buffer (0.1 M sodium phosphate, pH 7.8) with an electric motor driven glass tissue homogenizer. The homogenate was centrifuged at 5000×g using a Sorvall Fresco refrigerated centrifuge at 4 °C for 5 minutes. The supernatant was used as the enzyme source, and all enzyme preparations contained 0.3% (v/v) triton X-100 and 1 mg/ml BSA. Prior to use, the recombinant human enzyme was diluted 500-fold into sodium phosphate buffer containing triton X-100 and 1 mg/ml BSA.
(§2) Inhibition of AChE was determined using the Ellman assay and was based on the method outlined in Carlier et al.. Briefly, enzyme solution (10 µL) was added to each well of a 96-well micro assay plate, along with 20 µL of inhibitor in DMSO/saline suspension, and 150 µL of sodium phosphate buffer. Final concentration of DMSO was 0.1% in all incubations. The plate was incubated at 25 °C for ten minutes. Ellman assay reagents, acetylthiocholine iodide (0.4 mM, final concentration) and 5,5′-dithiobis-(2-nitro)benzoic acid (0.3 mM, final concentration), were prepared fresh and 20 µL was added to the enzyme to initiate the reaction. Changes in absorbance were recorded by a DYNEX Triad spectrophotometer (DYNEX Technologies, Chantilly, VA, USA) at 405 nm. Enzyme concentrations used were within the linear range, therefore eliminating the need for protein quantification.

[3] = target: Musca domestica AChE (MdAChE) (Musca domestica, UniProt Q7YWJ9); assay: AChE inhibition, Ellman assay; assay type: biochemical; settings: mean, n = 3; read-out: IC50 (95% CI)
Source text: as §1, §2

[4] = target: T2, Anopheles gambiae AChE (AgAChE), wild type G3 strain (Anopheles gambiae, UniProt Q869C3); assay: AChE inhibition, Ellman assay; assay type: biochemical
T2 construct: Homogenate enzymes were prepared from groups of ten non-blood fed adult female mosquitoes; from tissue; host or cells: whole adult female mosquitoes, G3 strain, supernatant of homogenate
Source text: as §1
as §2, with “reaction.” for “reaction. Changes in absorbance were recorded by a DYNEX Triad spectrophotometer (DYNEX Technologies, Chantilly, VA, USA) at 405 nm. Enzyme concentrations used were within the linear range, therefore eliminating the need for protein quantification.”

[5] = target: T3, Aedes aegypti AChE (AeAChE) (Aedes aegypti, UniProt Q6A2E2); assay: AChE inhibition, Ellman assay; assay type: biochemical
T3 construct: Homogenate enzymes were prepared from groups of ten non-blood fed adult female mosquitoes; from tissue; host or cells: whole adult female mosquitoes, supernatant of homogenate
Source text: as §1
as §2, with “reaction.” for “reaction. Changes in absorbance were recorded by a DYNEX Triad spectrophotometer (DYNEX Technologies, Chantilly, VA, USA) at 405 nm. Enzyme concentrations used were within the linear range, therefore eliminating the need for protein quantification.”

[6] = target: T4, Drosophila melanogaster AChE (DmAChE) (Drosophila melanogaster, UniProt P07140); assay: AChE inhibition, Ellman assay; assay type: biochemical; settings: mean, n = 3; read-out: IC50 (95% CI)
T4 construct: five whole bodied Drosophila, or three Musca heads homogenized; from tissue; host or cells: whole Drosophila (Oregon-R), supernatant of homogenate
Source text: as §1
as §2, with “reaction.” for “reaction. Changes in absorbance were recorded by a DYNEX Triad spectrophotometer (DYNEX Technologies, Chantilly, VA, USA) at 405 nm. Enzyme concentrations used were within the linear range, therefore eliminating the need for protein quantification.”

[7] = test system: neuromuscular junction of third instar Musca domestica larvae; assay: Neuromuscular junction recordings of evoked EPSP in housefly larvae; settings: toluene at 5 mM
Procedure: Neuromuscular recordings of the evoked excitatory postsynaptic potential (EPSP) were performed on third instar housefly larvae, essentially as described previously. In short, the maggot was immobilized with pins, and the nervous and musculature systems were exposed. The preparation was then bathed in saline containing: 140 mM NaCl, 0.75 mM CaCl2, 5 mM KCl, 4 mM MgCl2, 5 mM NaHCO3, and 5 mM HEPES (pH = 7.25). The nerves were severed from the base of the CNS, which was removed, and a lateral nerve trunk innervating the longitudinal muscles was drawn into a suction electrode filled with saline. Stimuli were applied at 1 volt and of 0.2 sec duration to elicit a contraction from the longitudinal muscles. The stimulated muscle was then impaled with a recording glass capillary microelectrode filled with 1 M KCl to record effects on the evoked EPSP and membrane potential. Signals from all recordings were amplified and digitized with the use of the MacLab. Chemicals were applied to the preparation directly by hand pipetting 150 µL of solution into the bath volume of 150 µL.

[8] = test system: octopamine receptors of Sf21 cells; assay: Calcium fluorescence assay in Sf21 cells; assay type: cell-based
Procedure: The Sf21 insect cell line was obtained from a commercial supplier (Invitrogen, Carlsbad, CA, USA) and maintained in log phase culture in Trichoplusia ni Medium-Formulation Hink (TNM-FH) from Sigma-Aldrich (St. Louis, MO, USA), supplemented with 10% fetal bovine serum and 100 U/ml penicillin and streptomycin (Sigma-Aldrich). Cells were cultured in a non-humidified environment and maintained at 27°C. Sf21 cells were passaged every 3–5 days according to manufacturer's instructions, and maintained for about 30 passes before being replaced by fresh cells.
Sf21 cells were plated into 96-well black-wall, clear bottom plates 24 h before calcium fluorescence assay. […] The octopamine receptor antagonist phentolamine (100 µM) was co-incubated with cells for 1 h before drug challenge. Phentolamine, octopamine, and DEET were dissolved in water, while propoxur was dissolved in 100% DMSO to make a stock solution, and in the assay, DMSO was kept to 0.1%. The experiment was repeated in triplicate with different plates of cells to obtain means and SEMs for each experimental condition.

[9] = target: T5, Recombinant human AChE (hAChE) (Homo sapiens, UniProt P22303); assay: AChE inhibition, Ellman assay; assay type: biochemical; settings: mean, n = 3; read-out: IC50 (95% CI)
T5 construct: purchased Sigma C1682
Source text: as §1, §2

rat Nav 1.4 channel = test system: rat Nav 1.4 channel; parameters: method as in ref 12 = [12]; 12 Scior T , Martinez-Morales E , Cruz S , Salinas-Stefanon E ( 2009 ) In silico modeling of toluene binding site in the pore of voltage-gate sodium channel . J Receptor Ligand Channel Res 2 : 1 – 9 .; settings: in vitro ref 12; cited from earlier work
acetylcholinesterase = assay: AChE inhibition, Ellman assay, summary statements across enzymes; assay type: biochemical; settings: concentrations up to 10 mM, all enzyme preparations
Source text: as §1, with “The supernatant was used as the enzyme source, and all enzyme preparations contained 0.3% (v/v) triton X-100 and 1 mg/ml BSA. Prior to use, the recombinant human enzyme was diluted 500-fold into sodium phosphate buffer containing triton X-100 and 1 mg/ml BSA.” left out
Inhibition of AChE was determined using the Ellman assay and was based on the method outlined in Carlier et al.. […] Changes in absorbance were recorded by a DYNEX Triad spectrophotometer (DYNEX Technologies, Chantilly, VA, USA) at 405 nm. Enzyme concentrations used were within the linear range, therefore eliminating the need for protein quantification.

[10] = test system: housefly larval central nervous system; assay: Neurophysiological recordings of CNS nerve discharge in housefly larvae; settings: Musca domestica; transected CNS; value (95% CI); read-out: EC50, excitation of nerve firing
[11] = mean, n = 3, read-out: IC50 (95% CI)

Question: For `Nc1ccncc1` [4-AP, 4-aminopyridine], which “increase of maximal firing frequency above control levels” value [1] is on record?
Answer: 6 fold

Question: What about the EC50 ([1]; Fig. 3D, firing declined at concentrations >1 mM, read-out: EC50, neuroexcitation) of the same molecule?
Answer: 0.013 mM

Question: What does the source list for `Cc1cc(Cl)ccc1N=CN(C)C` [CDM, chlordimeform]?
Answer: lantern illumination (firefly light organ; 1 µg topically on light organ): incomplete activation of the light organ; duration of glow of the entire lantern (firefly light organ; 5 µg): approximately four; lantern illumination (firefly light organ; 5 µg topically on light organ): bright, constant glow of the entire lantern

Question: Which IC50 [2] does the source give for `CCN(CC)CC(=O)Nc1c(C)cccc1C` [Lidocaine, lidocaine] here?
Answer: > 10 mM

Question: And the IC50 [3]?
Answer: 4.9 mM

Question: What about the IC50 [4, 11] of the same molecule?
Answer: > 10 mM

Question: What about the IC50 [5, 11] of the same molecule?
Answer: > 10 mM

Question: And the IC50 [6]?
Answer: 9.6 mM

Question: And the “effect on evoked EPSP in words” value [7]?
Answer: antagonist

Question: Which “increase in calcium fluorescence” value ([8]; 100 µM, over control cells) does the source give for `NCC(O)c1ccc(O)cc1` (centres unmarked) [Octopamine, octopamine] here?
Answer: ca. 50%

Question: And the EC50 ([1]; Fig. 3B, read-out: excitatory EC50)?
Answer: 0.11 mM

Question: With `Cc1ccccc1` [Toluene, toluene] as the molecule, how does the IC50 [9] read?
Answer: > 10 mM

Question: And the IC50 [2]?
Answer: > 10 mM

Question: What about the IC50 [3] of the same molecule?
Answer: > 10 mM

Question: And the IC50 [4]?
Answer: > 10 mM

Question: What about the IC50 [5] of the same molecule?
Answer: > 10 mM

Question: What about the IC50 [6] of the same molecule?
Answer: > 10 mM

Question: What about the concentration blocking channels (rat Nav 1.4 channel) of the same molecule?
Answer: 3 mM

Question: And the “effect on evoked EPSP in words” value [7]?
Answer: excitatory

Question: What about the “AChE inhibition in words” value (acetylcholinesterase) of the same molecule?
Answer: inactive

Question: What about the EC50 [10] of the same molecule?
Answer: 1 mM

Question: For `Cc1ccc(N(CC2=NCCN2)c2cccc(O)c2)cc1` [phentolamine], which “effect on DEET- and octopamine-mediated activation of calcium fluorescence” value ([8]; 100 µM phentolamine pre-exposure 1 h) is on record?
Answer: abolished

Question: And the “block of DEET-mediated neuroexcitation” value ([1]; 100 µM phentolamine, DEET up to 500 µM)?
Answer: completely blocked

Question: What about the “block of octopamine-mediated neuroexcitation” value ([1]; 100 µM phentolamine, octopamine up to 3 mM) of the same molecule?
Answer: completely blocked

Question: And the “decline of maximal firing compared to propoxur alone” value ([1]; 100 µM phentolamine, propoxur 1 µM, not statistically significant)?
Answer: 21%

Question: What about the “effect on neuroexcitation by propoxur” value ([1]; 100 µM phentolamine, propoxur below 1 µM) of the same molecule?
Answer: no effect

Question: What about the “effect on 4-AP mediated neuroexcitation” value ([1]; phentolamine) of the same molecule?
Answer: no effect
